Consider 24 compounds from patent publication US10584128B2, “Bicyclic dihydropyrimidine-carboxamide derivatives as Rho-Kinase inhibitors” (CHIESI FARMACEUTICI S.p.A., priority 2016, dated 2020).

Broadly, the Ki is the equilibrium dissociation constant of an inhibitor or competing ligand from its target.

For one assay, the target named is Rho kinase 2 (Homo sapiens, UniProt O75116). As to the kind of experiment: In vitro Rho kinase inhibitory activity assay (ADP-Glo kit, Myelin Basic Protein substrate). The format is biochemical. The conditions noted are these: 10 μM ATP, 25° C., read-out: ROCK2 inhibitory activity (Ki, range of activity). The procedure, abridged: (§1)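 First, compound was incubated with either Rho kinase isoform for 30 mins at 25 °C; next, ATP was added to 10 μM final with 2.5 μM Myelin Basic Protein substrate; after 1 hour, ADP formed was detected by ADP-Glo luminescence. Dose-response data yielded IC50, converted to Ki using Cheng-Prusoff.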
Rho kinase 2, sequence (O75116 whole entry, canonical isoform): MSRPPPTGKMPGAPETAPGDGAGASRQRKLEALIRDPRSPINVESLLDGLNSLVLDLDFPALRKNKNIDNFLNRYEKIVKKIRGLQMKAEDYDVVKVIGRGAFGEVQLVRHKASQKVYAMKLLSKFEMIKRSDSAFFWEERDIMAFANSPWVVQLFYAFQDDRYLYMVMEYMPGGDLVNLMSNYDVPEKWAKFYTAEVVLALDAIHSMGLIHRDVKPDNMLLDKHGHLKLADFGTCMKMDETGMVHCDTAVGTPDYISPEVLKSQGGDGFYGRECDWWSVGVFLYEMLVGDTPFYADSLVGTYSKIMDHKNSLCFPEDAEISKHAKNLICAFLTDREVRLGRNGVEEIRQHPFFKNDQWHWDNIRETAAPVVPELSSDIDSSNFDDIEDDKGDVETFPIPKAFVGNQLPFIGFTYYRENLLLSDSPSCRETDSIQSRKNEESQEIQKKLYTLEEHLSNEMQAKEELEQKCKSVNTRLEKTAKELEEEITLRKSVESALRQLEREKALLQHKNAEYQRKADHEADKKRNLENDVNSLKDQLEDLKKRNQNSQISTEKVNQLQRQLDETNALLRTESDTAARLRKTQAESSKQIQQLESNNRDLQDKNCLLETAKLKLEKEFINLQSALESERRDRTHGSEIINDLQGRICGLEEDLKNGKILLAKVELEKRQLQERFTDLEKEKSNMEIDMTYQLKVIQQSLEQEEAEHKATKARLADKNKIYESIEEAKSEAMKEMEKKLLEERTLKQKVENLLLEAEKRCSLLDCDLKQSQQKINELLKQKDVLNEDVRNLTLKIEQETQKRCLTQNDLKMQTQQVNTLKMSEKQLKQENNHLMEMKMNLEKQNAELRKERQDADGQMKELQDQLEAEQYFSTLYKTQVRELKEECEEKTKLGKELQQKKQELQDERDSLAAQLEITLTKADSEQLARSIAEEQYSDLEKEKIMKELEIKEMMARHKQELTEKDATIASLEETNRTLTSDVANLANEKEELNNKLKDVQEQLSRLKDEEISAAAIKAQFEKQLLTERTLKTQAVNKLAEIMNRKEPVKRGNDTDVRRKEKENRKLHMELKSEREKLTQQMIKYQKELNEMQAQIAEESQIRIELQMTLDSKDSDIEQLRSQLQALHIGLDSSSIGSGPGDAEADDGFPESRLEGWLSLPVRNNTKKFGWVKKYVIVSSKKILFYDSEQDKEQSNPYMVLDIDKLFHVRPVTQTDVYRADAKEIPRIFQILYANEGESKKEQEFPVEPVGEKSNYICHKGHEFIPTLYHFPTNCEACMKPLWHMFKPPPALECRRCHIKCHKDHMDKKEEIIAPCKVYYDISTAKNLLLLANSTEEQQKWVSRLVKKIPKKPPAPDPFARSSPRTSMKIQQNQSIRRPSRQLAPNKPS

The target in a further assay is Rho kinase 1 (Homo sapiens, UniProt Q13464). The description is as above. The format is biochemical. The conditions noted are these: 10 μM ATP, 25° C., read-out: ROCK1 inhibitory activity (Ki, range of activity). The procedure, abridged: as §1
Rho kinase 1, sequence (Q13464 whole entry): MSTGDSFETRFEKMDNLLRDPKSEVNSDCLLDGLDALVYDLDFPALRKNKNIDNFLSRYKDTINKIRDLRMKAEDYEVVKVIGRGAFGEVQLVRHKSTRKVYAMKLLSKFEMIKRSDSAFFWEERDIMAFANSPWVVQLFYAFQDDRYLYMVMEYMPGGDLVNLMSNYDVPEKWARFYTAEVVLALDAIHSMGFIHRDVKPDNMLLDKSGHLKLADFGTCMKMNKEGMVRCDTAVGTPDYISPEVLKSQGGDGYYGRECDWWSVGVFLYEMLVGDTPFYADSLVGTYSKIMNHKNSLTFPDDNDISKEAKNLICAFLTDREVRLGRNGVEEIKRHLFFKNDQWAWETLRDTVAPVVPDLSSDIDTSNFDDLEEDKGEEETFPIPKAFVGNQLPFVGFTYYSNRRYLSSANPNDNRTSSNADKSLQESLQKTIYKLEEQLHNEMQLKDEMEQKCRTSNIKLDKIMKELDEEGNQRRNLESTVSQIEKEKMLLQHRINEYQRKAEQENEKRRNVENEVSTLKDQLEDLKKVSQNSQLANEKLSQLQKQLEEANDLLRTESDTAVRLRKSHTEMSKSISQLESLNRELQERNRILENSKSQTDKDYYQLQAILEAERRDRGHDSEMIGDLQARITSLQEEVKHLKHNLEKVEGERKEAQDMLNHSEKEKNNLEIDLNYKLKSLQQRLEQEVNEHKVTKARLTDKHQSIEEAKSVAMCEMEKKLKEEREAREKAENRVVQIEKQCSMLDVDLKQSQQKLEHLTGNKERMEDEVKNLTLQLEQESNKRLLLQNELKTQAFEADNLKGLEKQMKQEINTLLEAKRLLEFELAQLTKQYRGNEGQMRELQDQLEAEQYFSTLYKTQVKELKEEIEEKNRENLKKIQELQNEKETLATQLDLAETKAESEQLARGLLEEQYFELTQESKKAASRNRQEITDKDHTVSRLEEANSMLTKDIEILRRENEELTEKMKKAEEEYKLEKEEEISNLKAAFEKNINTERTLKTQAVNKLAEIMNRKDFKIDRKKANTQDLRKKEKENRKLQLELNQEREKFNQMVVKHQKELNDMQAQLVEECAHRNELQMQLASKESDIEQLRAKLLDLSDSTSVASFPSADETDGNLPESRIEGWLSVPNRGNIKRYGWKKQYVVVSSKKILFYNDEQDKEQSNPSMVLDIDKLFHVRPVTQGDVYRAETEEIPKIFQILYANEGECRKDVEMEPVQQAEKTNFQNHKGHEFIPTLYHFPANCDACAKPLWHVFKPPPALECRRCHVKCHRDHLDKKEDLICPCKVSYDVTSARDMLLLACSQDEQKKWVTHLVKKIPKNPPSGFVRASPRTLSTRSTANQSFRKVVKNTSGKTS

Take `CCOC(=O)c1cc2n(n1)C(c1ccc(C(F)F)c(F)c1)C(C(=O)Nc1ccc3cnccc3c1)=C(C)N2` (stereo not drawn) [Example 115, ethyl 7-(4-(difluoromethyl)-3-fluorophenyl)-6-(isoquinolin-6-ylcarbamoyl)-5-methyl-4,7-dihydropyrazolo[1,5-a]pyrimidine-2-carboxylate]: the Ki at Rho kinase 2 and at Rho kinase 1 was under 50 nM throughout.
With `CCOC(=O)c1cc2n(n1)C(c1ccc(C(F)(F)F)c(F)c1)C(C(=O)Nc1cc3cnccc3s1)=C(C)N2` (stereo not drawn) [Example 41, Ethyl 7-(3-fluoro-4-(trifluoromethyl)phenyl)-5-methyl-6-(thieno[3,2-c]pyridin-2-ylcarbamoyl)-4,7-dihydropyrazolo[1,5-a]pyrimidine-2-carboxylate], the values for the inhibitory constant (Ki) at Rho kinase 2 and on Rho kinase 1 were 50 to 500 nM and over 500 nM, respectively.
With `CCOC(=O)c1cc2n(n1)C(C1CCOCC1)C(C(=O)Nc1ccc3[nH]ncc3c1)=C(C)N2` (stereo not drawn) [Example 11, ethyl 6-((1H-indazol-5-yl)carbamoyl)-5-methyl-7-(tetrahydro-2H-pyran-4-yl)-4,7-dihydropyrazolo[1,5-a]pyrimidine-2-carboxylate], the Ki on Rho kinase 2 and on Rho kinase 1 was 50 to 500 nM throughout.
Consider `COc1ccc(-c2cc3n(n2)C(c2ccc(F)cc2)C(C(=O)Nc2ccc4[nH]ncc4c2)=C(C)N3)cc1` (stereo not drawn) [Example 20, 7-(4-fluorophenyl)-N-(1H-indazol-5-yl)-2-(4-methoxyphenyl)-5-methyl-4,7-dihydropyrazolo[1,5-a]pyrimidine-6-carboxamide], for which the Ki on Rho kinase 2 and on Rho kinase 1 was under 50 nM throughout.
Consider `CC1=C(C(=O)Nc2ccc3cnccc3c2)C(c2ccc(C(F)(F)F)c(F)c2)n2nc(C(=O)N(C)C)cc2N1` (stereo not drawn) [Example 126, 7-(3-fluoro-4-(trifluoromethyl)phenyl)-N6-(isoquinolin-6-yl)-N2,N2,5-trimethyl-4,7-dihydropyrazolo[1,5-a]pyrimidine-2,6-dicarboxamide], for which the Ki on Rho kinase 2 and at Rho kinase 1 was under 50 nM each time.
Take `CCOC(=O)c1cc2n(n1)C(c1nc3ccccc3s1)C(C(=O)Nc1ccc3cnccc3c1)=C(C)N2` (stereo not drawn) [Example 8, ethyl 7-(benzo[d]thiazol-2-yl)-6-(isoquinolin-6-ylcarbamoyl)-5-methyl-4,7-dihydropyrazolo[1,5-a]pyrimidine-2-carboxylate]: the Ki on Rho kinase 2 and at Rho kinase 1 was under 50 nM in each case.
For the compound `CC1=C(C(=O)Nc2ccc3[nH]ncc3c2)C(c2ccc(Cl)cc2)n2nnnc2N1` (single isomer, unassigned) [Example 24B, 7-(4-chlorophenyl)-N-(1H-indazol-5-yl)-5-methyl-4,7-dihydrotetrazolo[1,5-a]pyrimidine-6-carboxamide], the Ki at Rho kinase 2 and on Rho kinase 1 was 50 to 500 nM in each case.
On to `CC1=C(C(=O)Nc2ccc3cnccc3c2)C(c2ccc(Cl)cc2F)n2nc(CO)cc2N1` (stereo not drawn) [Example 64, 7-(4-chloro-2-fluorophenyl)-2-(hydroxymethyl)-N-(isoquinolin-6-yl)-5-methyl-4,7-dihydropyrazolo[1,5-a]pyrimidine-6-carboxamide], for which the inhibitory constant (Ki) on Rho kinase 2 and at Rho kinase 1 was under 50 nM in each case.
Turning to `CC1=C(C(=O)Nc2ccc3cnccc3c2)C(c2ccc(C(F)(F)F)cc2)n2nc(CO)cc2N1` (single isomer, unassigned) [Example 43A, 2-(hydroxymethyl)-N-(isoquinolin-6-yl)-5-methyl-7-(4-(trifluoromethyl)phenyl)-4,7-dihydropyrazolo[1,5-a]pyrimidine-6-carboxamide], the Ki was 50 to 500 nM at Rho kinase 2 and over 500 nM at Rho kinase 1.
On the same counts, the results for `CC1=C(C(=O)Nc2ccc3[nH]ncc3c2)C(c2ccc(F)cc2)n2nc(CO)cc2N1` (single isomer, unassigned) [Example 71B, 7-(4-fluorophenyl)-2-(hydroxymethyl)-N-(1H-indazol-5-yl)-5-methyl-4,7-dihydropyrazolo[1,5-a]pyrimidine-6-carboxamide] are over 500 nM and over 500 nM.
Turning to `CC1=C(C(=O)Nc2ccc3cnccc3c2)C(c2ccc(Cl)cc2)n2nc(CO)cc2N1` (single isomer, unassigned) [Example 62A, 7-(4-chlorophenyl)-2-(hydroxymethyl)-N-(isoquinolin-6-yl)-5-methyl-4,7-dihydropyrazolo[1,5-a]pyrimidine-6-carboxamide], the inhibition constant (Ki) at Rho kinase 2 and on Rho kinase 1 was under 50 nM throughout.
For `CCOC(=O)c1cc2n(n1)C(CC(C)C)C(C(=O)Nc1ccc3[nH]ncc3c1)=C(C)N2` (stereo not drawn) [Example 13, ethyl 6-((1H-indazol-5-yl)carbamoyl)-7-isobutyl-5-methyl-4,7-dihydropyrazolo[1,5-a]pyrimidine-2-carboxylate], the Ki at Rho kinase 2 and on Rho kinase 1 was 50 to 500 nM throughout.
For the compound `CC1=C(C(=O)Nc2ccc3cnccc3c2)C(c2ccc(C(F)(F)F)c(F)c2)n2nc(C(=O)NCCN3CCCCC3)cc2N1` (stereo not drawn) [Example 77, 7-(3-fluoro-4-(trifluoromethyl)phenyl)-N6-(isoquinolin-6-yl)-5-methyl-N2-(2-(piperidin-1-yl)ethyl)-4,7-dihydropyrazolo[1,5-a]pyrimidine-2,6-dicarboxamide], the Ki on Rho kinase 2 and at Rho kinase 1 was under 50 nM throughout.
As for `CC1=C(C(=O)Nc2ccc3cnccc3c2)C(c2ccc(C(F)(F)F)c(F)c2)n2nc(NC(=O)COC3CCN(C)CC3)cc2N1` (stereo not drawn) [Example 133, 7-(3-fluoro-4-(trifluoromethyl)phenyl)-N-(isoquinolin-6-yl)-5-methyl-2-(2-((1-methylpiperidin-4-yl)oxy)acetamido)-4,7-dihydropyrazolo[1,5-a]pyrimidine-6-carboxamide], the inhibitory constant (Ki) at Rho kinase 2 and on Rho kinase 1 was under 50 nM throughout.
Take `CC1=C(C(=O)Nc2ccc3cnccc3c2)C(c2ccc(C(F)(F)F)c(F)c2F)n2nc(CN(C)C)cc2N1` (single isomer, unassigned) [Example 122b, 7-(2,3-difluoro-4-(trifluoromethyl)phenyl)-2-((dimethylamino)methyl)-N-(isoquinolin-6-yl)-5-methyl-4,7-dihydropyrazolo[1,5-a]pyrimidine-6-carboxamide]: the inhibitory constant (Ki) on Rho kinase 2 and on Rho kinase 1 was under 50 nM each time.
As for `COCC1=C(C(=O)Nc2ccc3cnccc3c2)C(c2ccc(C(F)(F)F)c(F)c2)n2nc(CO)cc2N1` (stereo not drawn) [Example 119, 7-(3-fluoro-4-(trifluoromethyl)phenyl)-2-(hydroxymethyl)-N-(isoquinolin-6-yl)-5-(methoxymethyl)-4,7-dihydropyrazolo[1,5-a]pyrimidine-6-carboxamide], the Ki at Rho kinase 2 and on Rho kinase 1 was under 50 nM in each case.
Take `CSc1cc2n(n1)C(c1ccc(C(F)(F)F)c(F)c1)C(C(=O)Nc1ccc3cnccc3c1)=C(C)N2` (stereo not drawn) [Example 117, 7-(3-fluoro-4-(trifluoromethyl)phenyl)-N-(isoquinolin-6-yl)-5-methyl-2-(methylthio)-4,7-dihydropyrazolo[1,5-a]pyrimidine-6-carboxamide]: the Ki at Rho kinase 2 and at Rho kinase 1 was under 50 nM each time.
`CC1=C(C(=O)Nc2ccc3cnccc3c2)C(c2ccc(C)cc2)n2nc(CO)cc2N1` (stereo not drawn) [Example 66, 2-(hydroxymethyl)-N-(isoquinolin-6-yl)-5-methyl-7-(p-tolyl)-4,7-dihydropyrazolo[1,5-a]pyrimidine-6-carboxamide]: the inhibition constant (Ki) at Rho kinase 2 and on Rho kinase 1 was under 50 nM in each case.
`CC1=C(C(=O)Nc2ccc3[nH]ncc3c2)C(c2ccc(F)cc2)n2nc(C#N)cc2N1` (stereo not drawn) [Example 31, 2-cyano-7-(4-fluorophenyl)-N-(1H-indazol-5-yl)-5-methyl-4,7-dihydropyrazolo[1,5-a]pyrimidine-6-carboxamide]: the Ki on Rho kinase 2 and at Rho kinase 1 was under 50 nM each time.
With `CCOC(=O)c1cc2n(n1)C(c1ccc(F)cc1)C(C(=O)Nc1ccc3[nH]ncc3c1)=C(C)N2` (single isomer, unassigned) [Example 4A, ethyl 6-((1H-indazol-5-yl)carbamoyl)-7-(4-fluorophenyl)-5-methyl-4,7-dihydropyrazolo[1,5-a]pyrimidine-2-carboxylate], the Ki at Rho kinase 2 and at Rho kinase 1 was over 500 nM in each case.
Turning to `CC1=C(C(=O)Nc2ccc3[nH]ncc3c2)C(c2ccc(C(F)(F)F)cc2F)n2nnnc2N1` (single isomer, unassigned) [Example 26B, 7-(2-fluoro-4-(trifluoromethyl)phenyl)-N-(1H-indazol-5-yl)-5-methyl-4,7-dihydrotetrazolo[1,5-a]pyrimidine-6-carboxamide], the inhibition constant (Ki) at Rho kinase 2 and at Rho kinase 1 was 50 to 500 nM in each case.
Regarding `CC1=C(C(=O)Nc2ccc3cnccc3c2)C(C2COc3ccccc3O2)n2nc(CO)cc2N1` (single isomer, unassigned) [Example 72B, 7-(2,3-dihydrobenzo[b][1,4]dioxin-2-yl)-2-(hydroxymethyl)-N-(isoquinolin-6-yl)-5-methyl-4,7-dihydropyrazolo[1,5-a]pyrimidine-6-carboxamide], the inhibitory constant (Ki) on Rho kinase 2 and at Rho kinase 1 was under 50 nM each time.
For `CC1=C(C(=O)Nc2ccc3cnccc3c2)C(c2cccc3c2ccn3C)n2nc(CO)cc2N1` (stereo not drawn) [Example 44, 2-(hydroxymethyl)-N-(isoquinolin-6-yl)-5-methyl-7-(1-methyl-1H-indol-4-yl)-4,7-dihydropyrazolo[1,5-a]pyrimidine-6-carboxamide], the Ki at Rho kinase 2 and on Rho kinase 1 was 50 to 500 nM each time.
In the case of `CC1=C(C(=O)Nc2ccc3cnccc3c2)C(C2Cc3ccccc3C2)n2nc(CN(C)C)cc2N1` (single isomer, unassigned) [Example 124b, 7-(2,3-dihydro-1H-inden-2-yl)-2-((dimethylamino)methyl)-N-(isoquinolin-6-yl)-5-methyl-4,7-dihydropyrazolo[1,5-a]pyrimidine-6-carboxamide], the Ki on Rho kinase 2 and at Rho kinase 1 was under 50 nM in each case.
